For the first assay, the target named is human αVβ3 receptor (Homo sapiens, UniProt P05106+P06756). In words: Kistrin/Vitronectin receptor (αVβ3) ELISA test. As to conditions: co-incubated 3 hours at ambient temperature, read-out: K/VnR IC50. The class given is binding. Here is the method: Pharmacological Test: Kistrin/Vitronectin Receptor (αVβ3) ELISA Test
human αVβ3 receptor, sequence (P06756 31-889 limits assumed): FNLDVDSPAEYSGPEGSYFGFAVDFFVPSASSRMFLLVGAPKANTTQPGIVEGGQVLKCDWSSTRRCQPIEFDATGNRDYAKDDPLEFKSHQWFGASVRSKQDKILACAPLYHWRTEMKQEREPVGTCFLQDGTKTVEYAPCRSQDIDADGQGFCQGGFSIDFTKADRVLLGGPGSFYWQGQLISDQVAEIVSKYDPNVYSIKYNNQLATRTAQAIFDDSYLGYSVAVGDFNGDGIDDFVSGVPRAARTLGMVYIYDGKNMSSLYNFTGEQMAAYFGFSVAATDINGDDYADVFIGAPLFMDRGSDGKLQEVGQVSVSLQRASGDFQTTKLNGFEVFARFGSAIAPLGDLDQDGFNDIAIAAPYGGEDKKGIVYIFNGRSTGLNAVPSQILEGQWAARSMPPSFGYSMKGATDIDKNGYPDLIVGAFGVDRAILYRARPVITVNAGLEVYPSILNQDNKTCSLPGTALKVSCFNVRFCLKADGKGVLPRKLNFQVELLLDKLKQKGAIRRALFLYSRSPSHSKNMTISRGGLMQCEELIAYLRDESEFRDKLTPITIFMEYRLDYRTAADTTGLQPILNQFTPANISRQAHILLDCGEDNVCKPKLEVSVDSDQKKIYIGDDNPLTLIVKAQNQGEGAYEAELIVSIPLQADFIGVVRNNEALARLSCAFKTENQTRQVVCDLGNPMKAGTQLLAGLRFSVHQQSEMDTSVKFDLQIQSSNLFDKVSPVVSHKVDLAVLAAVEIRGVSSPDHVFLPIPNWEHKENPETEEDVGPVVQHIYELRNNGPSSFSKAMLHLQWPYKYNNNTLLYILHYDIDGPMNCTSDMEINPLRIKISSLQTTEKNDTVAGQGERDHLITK
human αVβ3 receptor, sequence (P06756 891-1048 partner limits assumed): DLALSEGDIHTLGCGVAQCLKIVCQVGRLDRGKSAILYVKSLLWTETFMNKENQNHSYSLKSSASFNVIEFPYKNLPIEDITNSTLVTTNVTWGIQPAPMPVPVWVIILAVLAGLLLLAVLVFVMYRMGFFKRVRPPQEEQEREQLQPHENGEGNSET
human αVβ3 receptor, sequence (P05106 27-788): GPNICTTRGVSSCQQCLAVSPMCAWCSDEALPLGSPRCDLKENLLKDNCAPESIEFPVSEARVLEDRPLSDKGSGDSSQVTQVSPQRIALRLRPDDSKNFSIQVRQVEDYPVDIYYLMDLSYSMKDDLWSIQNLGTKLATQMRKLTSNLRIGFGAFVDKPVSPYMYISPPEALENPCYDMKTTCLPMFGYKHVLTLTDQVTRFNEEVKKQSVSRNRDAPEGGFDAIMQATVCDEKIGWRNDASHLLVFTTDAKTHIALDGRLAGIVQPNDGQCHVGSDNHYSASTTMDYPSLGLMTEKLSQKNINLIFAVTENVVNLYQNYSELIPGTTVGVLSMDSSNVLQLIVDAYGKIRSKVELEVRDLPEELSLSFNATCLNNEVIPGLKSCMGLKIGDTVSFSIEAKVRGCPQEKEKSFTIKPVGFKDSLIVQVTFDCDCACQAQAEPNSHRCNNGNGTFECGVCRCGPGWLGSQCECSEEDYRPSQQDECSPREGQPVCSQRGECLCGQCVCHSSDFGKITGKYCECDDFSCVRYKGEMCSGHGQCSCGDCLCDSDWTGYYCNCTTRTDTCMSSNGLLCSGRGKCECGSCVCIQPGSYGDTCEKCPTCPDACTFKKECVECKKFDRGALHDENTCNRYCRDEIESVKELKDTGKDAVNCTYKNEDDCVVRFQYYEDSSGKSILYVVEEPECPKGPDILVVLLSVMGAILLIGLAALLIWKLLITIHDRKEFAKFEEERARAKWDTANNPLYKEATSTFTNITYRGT
96-well MaxiSorp plates are coated overnight at […] with 100 μl of Kistrin at 1 μg/ml (dilution in coating buffer: 0.05M (carbonate)/NaOH pH 9.6. The next day, the wells are emptied and the ligands (kistrin) are then fixed (fixation buffers: PBS containing 0.5% BSA (pH=7.4)) for 1 hour at ambient temperature under gentle stirring of 125 rpm. The wells are washed six times (washing buffer: PBS containing 0.05% Tween 20 (pH 7.7) then the following is added per well and in this order:
40 μl of incubation buffer
10 μl of the dilution of the product to be tested (the products are diluted in a 50:50 DMSO/water mixture)
50 μl of human αVβ3 receptor (cf Pytella et al. Methods Enzymol. (1987) 144 (Dilution in incubation buffer, adapted according to the batch of receptor and according to the ligand). The ligand, the αVβ3 receptor and the products to be studied are co-incubated for 3 hours at ambient temperature with gentle stirring of 125 rpm.
The wells are again washed six times, then incubated for 2 hours at ambient temperature with gentle stirring of 125 rpm, in the presence of 100 μl of anti-receptor antibody coupled to a peroxidase (The 4B12-HRP antibody is diluted in incubation buffer (50 mM TRIS pH 7.4; 0.5% BSA; 0.05% Tween 20; 1 mM MnCl2; 50 μM CaCl2; 50 μM MgCl2; 100 mM NaCl). The dilution is to be adapted according to the batch of receptor.
The wells are then washed six times before measurement of the ligand-receptor bond is carried out using a peroxidase developer kit (TBM Microwell Peroxidase Substrate System Kirkegaard; Ref cat 50-76-00).
This kit contains a flask A of substrate (3,3′,5,5′-tetramethylebenzidine at 0.4 g/l) and a flask B (0.02% H2O2 in Citrate/Citric acid). Extemporaneously, one volume of A is mixed with one volume of B, then the reaction mixture is distributed at a rate of 100 μl/well.
The enzymatic reaction develops between 6 to 10 minutes for Kistrin/αVβ3 then its development is stopped by the addition of 100 μl of 1M phosphoric acid. The optical density is determined at 450 nm.
Expression of the Results
The following curve is plotted: the bond percentage as a function of the logarithm of each concentration of the tested product. For each product the IC50 is determined according to the following formula: IC50=(B0+Bmin)/2
B0=Maximum bond in the absence of any product
Bmin=Minimum bond in the presence of the highest concentration of the product.
`CCc1c(NCC(NC(=O)OCc2ccccc2)C(=O)O)ncnc1N1CCC(c2ccc3c(n2)NCCC3)CC1` (racemic) [Example 1, 3-[[5-ethyl-6-[4-(1,2,3,4-tetrahydro-1,8-naphthyridin-7-yl)-1-piperidinyl]-4-pyrimidinyl]amino]-N-[(phenylmethoxy)carbonyl]alanine, bis(trifluoroacetate)]: the IC50 is 3 nM. Still for that read-out and setting: the figure for `CCc1c(NCC(NC(=O)OCc2ccccc2)C(=O)O)ncnc1N1CCC(C(=O)N=C2NCCCN2)CC1` (racemic) [Example 2, 3-[[5-ethyl-6-[4-[(1,2,3,4,5,6-hexahydro-2-pyrimidinyl)iminocarbonyl]-1-piperidinyl]-4-pyrimidinyl]amino]-N-[(phenylmethoxy)carbonyl]alanine] is 160 nM; for `Cc1c(NCC(NC(=O)OCc2ccccc2)C(=O)O)ncnc1N1CCC(c2ccc3c(n2)NCCC3)CC1` (racemic) [Example 3, 3-[[6-[4-(1,2,3,4-tetrahydro-1,8-naphthyridin-7-yl)-1-piperidinyl]-5-methyl-4-pyrimidinyl]amino]-N-[(phenylmethoxy)carbonyl]alanine] it is 3.1 nM.

Take `Cc1c(NCC(NC(=O)OCc2ccccc2)C(=O)O)ncnc1N1CCC(C(=O)N=C2NCCCN2)CC1` (racemic) [Example 4, 3-[[6-[4-[(1,2,3,4,5,6-hexahydro-2-pyrimidinyl)iminocarbonyl]-1-piperidinyl]-5-methyl-4-pyrimidinyl]amino]-N-[(phenylmethoxy)carbonyl]alanine]: the IC50 is 5.1 nM.

Another assay relates to TPXT rats. The assay is described as follows: Hypercalcemia induced by the parathyroid hormone (PTH) in a thyroparathyroidectomized (TPXT) rat model. To be noted: doses ranging from twice 1 mg/kg to twice 10 mg/kg by subcutaneous route in the rat, at time 0 and 3 hours; serum Ca at 6 hours. The class given is in vivo. As to the method:
Hypercalcemia induced by the parathyroid hormone (PTH) in a thyroparathyroidectomized (TPXT) rat model
Stimulation of bone resorption is induced in TPXT rats by perfusion of PTH and the variations of bone resorption are monitored by the concentration of calcium in the serum.
Male Sprague Dawley rats weighing 150-200 g are thyroparathyroidectomized. The rats are subjected to a standard diet containing 7 g Ca/kg (UAR) and Volvic water. The effectiveness of the thyroparathyroidectomy is tested by measuring the concentrations of Ca in the serum 8 days after the operation in animals which have been starved since the previous day. The rats are considered as thyroparathyroidectomized when the Ca levels in the serum are less than 80 mg/l. The PTH (1-34) of the rat (Bachem) is dissolved in 0.15M of NaCl Cys.HCl 2% and delivered by osmotic minipumps (ALZET 2001D) at a dose of 200 pmol/kg/h. The minipumps are introduced into the intraperitoneal cavities under anaesthesia (ketamine—75 mg/kg and acepromazine—2.5 mg/kg) of the TPXT rats which have been starved since the previous day. The control TPXT rats receive the minipumps filled with the PTH vehicle.
Either the product to be tested or the vehicle (controls and rats treated with the PTH) are administered twice by sub-cutaneous route (2 ml/kg of body weight) at time 0 and 3 hours after the start of the infusion of PTH. The test is continued for the next 6 hours. At the end of the treatment, all the blood is collected after decapitation. The blood samples are centrifuged at 3000 rpm for 15 minutes (CR422 Jouan) in order to obtain the serum.
The total concentrations of Ca in the serum are measured by colorimetry (Ciba-Corning) using an IEMS Labsystems microplate reading system, at 540 nm.
The difference between the average calcemia values of the treated rats and the control groups is analyzed by variance and by the Dunnett test.
The activity of a product is calculated by the following formula: […]
On to `Cc1c(NC[C@H](NC(=O)OCc2ccccc2)C(=O)O)ncnc1N1CCC(c2ccc3c(n2)NCCC3)CC1` [Example 6, 3-[[5-methyl-6-[4-(1,2,3,4-tetrahydro-1,8-naphthyridin-7-yl)-1-piperidinyl]-4-pyrimidinyl]amino]-N-[(phenylmethoxy)carbonyl]alanine, bis(trifluoroacetate)], for which the “activity against PTH-induced hypercalcemia (total Ca in the serum)” value is listed as “active”. Still for that read-out and setting: for `CCc1c(NC[C@H](NC(=O)OCc2ccccc2)C(=O)O)ncnc1N1CCC(c2ccc3c(n2)NCCC3)CC1` [Example 9, 3-[[5-ethyl-6-[4-(1,2,3,4-tetrahydro-1,8-naphthyridin-7-yl)-1-piperidinyl]-4-pyrimidinyl]amino]-N-[(phenylmethoxy)carbonyl]alanine, bis(trifluoroacetate)] the value was “active”. The same measure, in the same setting: the entry for `CCc1c(NC[C@H](NC(=O)OCc2ccccc2)C(=O)OC(C)C)ncnc1N1CCC(c2ccc3c(n2)NCCC3)CC1` [Example 13, isopropyl 3-[[6-[4-(1,2,3,4-tetrahydro-1,8-naphthyridin-7-yl)-1-piperidinyl]-5-ethyl-4-pyrimidinyl]amino]-N-[(phenylmethoxy)carbonyl]alaninate] is “active”.

Values taken from US7763621B2, “Vitronectin receptor antagonist derivatives, method for preparing same, use thereof as medicines and pharmaceutical compositions containing same” (Galapagos SAS, priority 2002, dated 2010).
